{"source": "patent US20100273650A1", "about": "“Fungicidal Mixtures Comprising a Substituted 3-Hydroxymethylpyridine and a Further Fungicidal Compound” (BASF SE, priority 2007, published 2010)", "type_in_all_cases": "cell-based", "key": {"Septoria tritici": {"tested_on": "Septoria tritici", "test": "Activity against leaf blotch on wheat caused by Septoria tritici in the microtiter test (Septtr)", "settings": "single active compound, 405 nm, day 7 after inoculation"}, "Phytophthora infestans": {"tested_on": "Phytophthora infestans", "test": "microbe, parasite or virus in culture", "settings": "168 h, read-out: Observed efficacy"}, "Pyricularia oryzae": {"tested_on": "Pyricularia oryzae", "settings": "single active compound, 405 nm, 7 days after inoculation"}}, "note": "Where two headings read alike, the source gives them in different places."}
{"compound": "CCCCCCCCCCCCCN1CC(C)OC(C)C1", "note": "(stereo not drawn) [Tridemorph, 2,6-dimethyl-4-tridecylmorpholine]", "values": [{"measurement": "Observed efficacy", "setting": "Septoria tritici; 1 ppm", "value": 3, "unit": "%"}]}
{"compound": "OC(c1cccnc1)c1c(-c2ccc(Cl)cc2)csc1-c1ccc(Cl)cc1", "note": "(stereo not drawn) [I.8, 2,4-Bis-(4-chlorophenyl)-3-[(3-pyridyl)hydroxymethyl]thiophene]", "values": [{"measurement": "inhibition of growth at 0.063 ppm", "setting": "Phytophthora infestans", "value": 2, "unit": "%"}, {"measurement": "inhibition of growth at 0.25 ppm", "setting": "Phytophthora infestans", "value": 1, "unit": "%"}, {"measurement": "inhibition of growth at 1 ppm", "setting": "Phytophthora infestans", "value": 4, "unit": "%"}, {"measurement": "inhibition of growth at 4 ppm", "setting": "Phytophthora infestans", "value": 19, "unit": "%"}, {"measurement": "Observed efficacy", "setting": "Septoria tritici; 0.063 ppm", "value": 4, "unit": "%"}, {"measurement": "Observed efficacy", "setting": "Septoria tritici; 0.25 ppm", "value": 10, "unit": "%"}, {"measurement": "Observed efficacy", "setting": "Pyricularia oryzae; 0.25 ppm", "value": 2, "unit": "%"}, {"measurement": "Observed efficacy", "setting": "Pyricularia oryzae; 1 ppm", "value": 0, "unit": "%"}]}
{"compound": "CCCCCCCCc1c(CC)nc2ncnn2c1N", "note": "[5-ethyl-6-octyl-[1,2,4]triazolo[1,5-a]pyrimidine-7-ylamine]", "values": [{"measurement": "inhibition of growth at 0.25 ppm", "setting": "Phytophthora infestans", "value": 29, "unit": "%"}]}
{"compound": "Cc1ccc(C(C)NC(=O)[C@@H](NC(=O)OC(C)C)C(C)C)cc1", "note": "(stereo partly drawn) [Iprovalicarb, isopropyl [(1S)-2-methyl-1-(1-p-tolylethylcarbamoyl)propyl]carbamate]", "values": [{"measurement": "inhibition of growth at 1 ppm", "setting": "Phytophthora infestans", "value": 66, "unit": "%"}]}
{"compound": "CC(C)(C)C(O)(CCc1ccc(Cl)cc1)Cn1cncn1", "note": "(stereo not drawn) [Tebuconazol, 1-(4-chlorophenyl)-4,4-dimethyl-3-[1,2,4]triazol-1-ylmethylpentan-3-ol]", "values": [{"measurement": "Observed efficacy", "setting": "Septoria tritici; 0.25 ppm", "value": 63, "unit": "%"}]}
{"compound": "OC(c1cccnc1)c1c(-c2ccc(F)cc2F)csc1-c1ccc(F)cc1F", "note": "(stereo not drawn) [I.16, 2,4-Bis-(2,4-Difluorophenyl)-3-[(3-pyridyl)hydroxymethyl]thiophene]", "values": [{"measurement": "inhibition of growth at 1 ppm", "setting": "Phytophthora infestans", "value": 0, "unit": "%"}, {"measurement": "Observed efficacy", "setting": "Pyricularia oryzae; 1 ppm", "value": 0, "unit": "%"}]}
{"compound": "O=C1C2CC=CCC2C(=O)N1SC(Cl)(Cl)Cl", "note": "(stereo not drawn) [Captan, 2-trichloromethylsulfanyl-3a,4,7,7a-tetrahydroisoindole-1,3-dione]", "values": [{"measurement": "inhibition of growth at 1 ppm", "setting": "Phytophthora infestans", "value": 26, "unit": "%"}]}
{"compound": "N#Cc1c(Cl)c(Cl)c(Cl)c(C#N)c1Cl", "note": "[Chlorothalonil, 2,4,5,6-tetrachloroisophthalonitrile]", "values": [{"measurement": "inhibition of growth at 0.25 ppm", "setting": "Phytophthora infestans", "value": 10, "unit": "%"}]}
{"compound": "COC(=O)Nc1nc2ccccc2[nH]1", "note": "[Carbendazim, methyl (1H-benzoimidazol-2-yl)-carbamate]", "values": [{"measurement": "Observed efficacy", "setting": "Pyricularia oryzae; 0.25 ppm", "value": 24, "unit": "%"}]}
{"compound": "zinc propylenebis(dithiocarbamate) polymer [Propineb]", "values": [{"measurement": "Observed efficacy", "setting": "Pyricularia oryzae; 1 ppm", "value": 23, "unit": "%"}]}
{"compound": "OC(Cc1ccccc1Cl)(Cn1nc[nH]c1=S)C1(Cl)CC1", "note": "(stereo not drawn) [Prothioconazole, 2-[2-(1-chlorocyclopropyl)-3-(2-chlorophenyl)-2-hydroxypropyl]-2,4-dihydro-[1,2,4]triazole-3-thione]", "values": [{"measurement": "inhibition of growth at 16 ppm", "setting": "Phytophthora infestans", "value": 22, "unit": "%"}]}
{"compound": "CC(Cc1ccc(C(C)(C)C)cc1)CN1C[C@@H](C)O[C@@H](C)C1", "note": "(mixture of isomers) [Fenpropimorph, (RS)-cis-4-[3-(4-tert-butylphenyl)-2-methylpropyl]-2,6-dimethylmorpholine]", "values": [{"measurement": "Observed efficacy", "setting": "Septoria tritici; 1 ppm", "value": 9, "unit": "%"}]}
{"compound": "CNC(=O)/C(=N/OC)c1ccccc1COc1cc(C)ccc1C", "note": "[Dimoxystrobin, (E)-2-(methoxyimino)-N-methyl-2-[α-(2,5-xylyloxy)-o-tolyl]acetamide]", "values": [{"measurement": "inhibition of growth at 0.25 ppm", "setting": "Phytophthora infestans", "value": 42, "unit": "%"}]}
